The values that follow come from patent publication EP0426225A2, “(6,7-dihydro-5H-pyrrolo[1,2-c]-imidazol-5-yl)- and (5,6,7,8-tetrahydroimidazo[1,5-a]pyridin-5-yl) substituted 1H-benzotriazole derivatives” (JANSSEN PHARMACEUTICA N.V., priority 1989, dated 1991).

Counter-ions that a name gives are not always drawn. Like-named read-outs stand apart in the source and are kept apart here.

In experiment [1] the target is T1, aromatase (Rattus norvegicus, UniProt P22443).
T1 construct: Immature female Wistar rats weighing 120 g were injected subcutaneously; from tissue; host or cells: whole animal: immature female Wistar rats primed with PMSG (endogenous, mainly ovarian, aromatase by own knowledge)
T1 sequence (P22443 1-508): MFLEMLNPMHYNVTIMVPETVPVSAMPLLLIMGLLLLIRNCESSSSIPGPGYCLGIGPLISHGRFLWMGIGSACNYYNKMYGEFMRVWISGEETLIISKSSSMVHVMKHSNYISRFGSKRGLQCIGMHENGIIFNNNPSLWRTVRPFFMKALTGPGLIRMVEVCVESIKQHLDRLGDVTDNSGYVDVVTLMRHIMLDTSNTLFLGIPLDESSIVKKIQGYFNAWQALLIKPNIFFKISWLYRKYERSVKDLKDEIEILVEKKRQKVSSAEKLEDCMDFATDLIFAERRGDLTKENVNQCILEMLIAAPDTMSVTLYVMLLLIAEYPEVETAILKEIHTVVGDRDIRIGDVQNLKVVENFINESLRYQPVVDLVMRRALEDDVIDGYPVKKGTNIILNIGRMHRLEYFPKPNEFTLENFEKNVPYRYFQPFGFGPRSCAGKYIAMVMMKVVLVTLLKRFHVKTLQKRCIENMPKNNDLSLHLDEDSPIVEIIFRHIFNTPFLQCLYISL
In words: In vivo inhibition of the aromatase activity (plasma estradiol in PMSG-injected immature female rats). Set-up: species or system Wistar rats. Conditions: read-out: Aromatase in vivo % inhibition at 1 mg/kg. The protocol: Immature female Wistar rats weighing 120 g were injected subcutaneously with 200 I.U. of pregnant mare's serum gonadotropin (PMSG). Ninety hours later, 1 mg/kg of the test compound dissolved in 0.5 ml 20% polyethyleneglycol in water was administered by oral gavage. Control animals received 20% polyethyleneglycol only. Two hours following drug or placebo administration the rats were killed by decapitation and trunk blood was collected on heparine. Plasma estradiol concentrations were measured by standard radio-immunological procedures. […]

Experiment [2] addresses T2, aromatase (Homo sapiens, UniProt P11511).
T2 construct: from tissue; host or cells: human placental microsomes
T2 sequence (P11511 1-503): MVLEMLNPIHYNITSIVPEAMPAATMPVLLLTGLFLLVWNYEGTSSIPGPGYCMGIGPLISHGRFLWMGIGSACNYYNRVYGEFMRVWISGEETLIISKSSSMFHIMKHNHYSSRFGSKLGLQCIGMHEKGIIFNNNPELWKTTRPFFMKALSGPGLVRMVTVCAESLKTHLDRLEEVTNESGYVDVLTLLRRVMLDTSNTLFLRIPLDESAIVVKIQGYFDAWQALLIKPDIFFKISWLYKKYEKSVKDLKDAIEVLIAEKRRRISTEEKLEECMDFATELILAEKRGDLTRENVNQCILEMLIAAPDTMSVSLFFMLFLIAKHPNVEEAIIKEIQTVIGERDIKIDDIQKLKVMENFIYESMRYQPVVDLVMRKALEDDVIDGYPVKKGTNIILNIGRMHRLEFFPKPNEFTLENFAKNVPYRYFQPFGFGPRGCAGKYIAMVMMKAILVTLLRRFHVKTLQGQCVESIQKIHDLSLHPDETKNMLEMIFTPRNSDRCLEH
In words: In vitro inhibition of the aromatase activity test (conversion of 1,2[3H]-androstenedione into estrone and estradiol, human placental microsomes). It counts as biochemical. Conditions: 30 min at 37°C, concentration required to obtain 50% inhibition of the estrogen synthesis, read-out: Aromatase in vitro IC₅₀. The protocol: Human placental microsomes were diluted in potassium phosphate buffer (0.1M, pH 7.4) to give about 50% conversion of androgens to estrogens (protein content : about 0.5 mg). Four ml human placental microsomes were incubated in a final volume of 5 ml with 0.2 µCi 1,2[³H]-androstenedione, 2 µg androstenedione and 5 µl of test compound and/or dimethylsulfoxide (DMSO). […] The reaction was initiated by the addition of androstenedione and proceeded for 30 min at 37°C. During the incubation period, the mixtures were gassed with air. In this assay, aromatization of androstenedione results in the production of [3H]-H₂O which is isolated by extracting the samples with chloroform to remove the free steroid.

[3] abbreviates: 1 mg/kg by oral gavage, immature female Wistar rats 90 h after PMSG, plasma estradiol two hours after administration, relative to controls.

Turning to `N#Cc1ccc(COn2nnc3ccc(C4CCCc5cncn54)cc32)cc1` (stereo not shown) [Compound 2], the inhibition at 1 mg/kg on aromatase [1] (setting [3]) is 96%. For the same compound, at aromatase [2], the IC50 stood at 44.2 nM.
As to `CCCOn1nnc2ccc(C3CCCc4cncn43)cc21` (stereo not shown) [Compound 3], the inhibition at 1 mg/kg on aromatase [1] (setting [3]) was determined as 92%. Also, the IC50 on aromatase [2] amounted to 29.5 nM.
Taken in the same sequence, the figures for `CCOn1nnc2ccc(C3CCCc4cncn43)cc21` (stereo not shown) [Compound 4] were 94% and 37.5 nM.
With `C=CCOn1nnc2ccc(C3CCCc4cncn43)cc21` (stereo not shown) [Compound 5], the inhibition at 1 mg/kg at aromatase [1] (setting [3]) worked out at 95%. Besides, the IC50 on aromatase [2] turned out to be 27.9 nM.
In the case of `CC(C)COn1nnc2ccc(C3CCCc4cncn43)cc21` (stereo not shown) [Compound 6], the inhibition at 1 mg/kg on aromatase [1] (setting [3]) turned out to be 86%. In addition, the IC50 at aromatase [2] worked out at 59.2 nM.
As to `c1cc2nnn(OCC3CC3)c2cc1C1CCCc2cncn21` (stereo not shown) [Compound 8, 1-(cyclopropylmethoxy)-6-(5,6,7,8-tetrahydroimidazo[1,5-a]pyridin-5-yl)-1H-benzotriazole mononitrate], the inhibition at 1 mg/kg at aromatase [1] (po) worked out at 87%. In addition, the IC50 on aromatase [2] came to 31.9 nM.
On to `COn1nnc2ccc(C3CCCc4cncn43)cc21` (stereo not shown) [Compound 9], for which, at aromatase [1] (setting [3]), the inhibition at 1 mg/kg is 89%. For the same compound, the IC50 on aromatase [2] came to 57 nM.
Consider `CCCCOn1nnc2ccc(C3CCCc4cncn43)cc21` (stereo not shown) [Compound 10], for which the inhibition at 1 mg/kg on aromatase [1] (setting [3]) was 88%. On aromatase [2], the IC50 turned out to be 31.7 nM.
Taken in the same sequence, the figures for `C=C(C)COn1nnc2ccc(C3CCCc4cncn43)cc21` (stereo not shown) [Compound 12] were 85% and 25.2 nM.
`C#CCOn1nnc2ccc(C3CCCc4cncn43)cc21` (stereo not shown) [Compound 14]: the inhibition at 1 mg/kg at aromatase [1] (setting [3]) came out at 80%. Moreover, the IC50 at aromatase [2] is 29.5 nM.
With `N#CCCCCOn1nnc2ccc(C3CCCc4cncn43)cc21` (stereo not shown) [Compound 18], the inhibition at 1 mg/kg at aromatase [1] (setting [3]) stood at 88%. The IC50 at aromatase [2] was 34.6 nM.
For the compound `CCC(C)On1nnc2ccc(C3CCCc4cncn43)cc21` (stereo not shown) [Compound 20], at aromatase [1] (setting [3]), the inhibition at 1 mg/kg was found to be 87%. For the same compound, the IC50 on aromatase [2] was found to be 39.3 nM.
Regarding `OCCOn1nnc2ccc(C3CCCc4cncn43)cc21` (stereo not shown) [Compound 21], the inhibition at 1 mg/kg on aromatase [1] (setting [3]) is 88%. In addition, on aromatase [2], the IC50 is below 1000 nM.
For `Cn1nnc2ccc(C3CCCc4cncn43)cc21` (stereo not shown) [Compound 23], the inhibition at 1 mg/kg at aromatase [1] (setting [3]) came out at 93%. Moreover, the IC50 at aromatase [2] amounted to 89.8 nM.
In the case of `CCCCn1nnc2ccc(C3CCCc4cncn43)cc21` (stereo not shown) [Compound 24], the inhibition at 1 mg/kg at aromatase [1] (setting [3]) is 89%. Moreover, at aromatase [2], the IC50 was found to be 31.7 nM.
As for `CC(C)n1nnc2ccc(C3CCCc4cncn43)cc21` (stereo not shown) [Compound 25], the inhibition at 1 mg/kg on aromatase [1] (setting [3]) was determined as 91%. Further, the IC50 on aromatase [2] came to 55.6 nM.
Turning to `CCn1nnc2ccc(C3CCCc4cncn43)cc21` (stereo not shown) [Compound 26, 1-ethyl-6-(5,6,7,8-tetrahydroimidazo[1,5-a]pyridin-5-yl)-1H-benzotriazole monohydrochloride], the inhibition at 1 mg/kg on aromatase [1] (setting [3]) worked out at 93%. The IC50 on aromatase [2] is 54 nM.
Taken in the same sequence, the figures for `CCCCCCn1nnc2ccc(C3CCCc4cncn43)cc21` (stereo not shown) [Compound 27] were 86% and 25.4 nM.
Turning to `c1cc2nnn(C3CCCC3)c2cc1C1CCCc2cncn21` (stereo not shown) [Compound 30], at aromatase [1] (setting [3]), the inhibition at 1 mg/kg worked out at 93%. The IC50 on aromatase [2] was 42.3 nM.
Take `CCCn1nnc2ccc(C3CCCc4cncn43)cc21` (stereo not shown) [Compound 31]: at aromatase [1] (setting [3]), the inhibition at 1 mg/kg amounted to 96%. Also, the IC50 at aromatase [2] was found to be 43.5 nM.
Turning to `CC(C)(C)n1nnc2ccc(C3CCCc4cncn43)cc21` (stereo not shown) [Compound 32], on aromatase [1] (setting [3]), the inhibition at 1 mg/kg was 95%. Moreover, the IC50 at aromatase [2] turned out to be 54 nM.
For the compound `CC(C)Cn1nnc2ccc(C3CCCc4cncn43)cc21` (stereo not shown) [Compound 33], on aromatase [1] (setting [3]), the inhibition at 1 mg/kg was 96%. Also, the IC50 on aromatase [2] came to 46 nM.
The like results for `c1cc2nnn(C3CCCCC3)c2cc1C1CCCc2cncn21` (stereo not shown) [Compound 35] were, in that order, 98% and 41 nM.
